In ChEMBL document CHEMBL1123411, “Ribose-modified adenosine analogues as adenosine receptor agonists” (J Med Chem, 1986):

Columns and labels:
Mus musculus [1] = species: Mus musculus; assay: CNS activity measured using screen test failure; assay type: functional
Mus musculus [2] = species: Mus musculus; assay: Dose required to inhibit mouse locomotor activity by 60%; assay type: functional
Rattus norvegicus [3] = species: Rattus norvegicus; assay: Compound was evaluated for Cardiovascular activity (as 20% decrease in rate) in rats; assay type: functional; settings: Heart
Rattus norvegicus [4] = species: Rattus norvegicus; assay: Cardiovascular activity (as 20% decrease in rate).; assay type: functional
Adenosine receptor A1 = target: T1, Adenosine receptor A1 (Rattus norvegicus, UniProt P25099); assay: Binding affinity for adenosine A1 receptor in rat brain membranes using [3H]CHA as radioligand; assay type: cell membranes
T1 sequence (P25099 whole entry): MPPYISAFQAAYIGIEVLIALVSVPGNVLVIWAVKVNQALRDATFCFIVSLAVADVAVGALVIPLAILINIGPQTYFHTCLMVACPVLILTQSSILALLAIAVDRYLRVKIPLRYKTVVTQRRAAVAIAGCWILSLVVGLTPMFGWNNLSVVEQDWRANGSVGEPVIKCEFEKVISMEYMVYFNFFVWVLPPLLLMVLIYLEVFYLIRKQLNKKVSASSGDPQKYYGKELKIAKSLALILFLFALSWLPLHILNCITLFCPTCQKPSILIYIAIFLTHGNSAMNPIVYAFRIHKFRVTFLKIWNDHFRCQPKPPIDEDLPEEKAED

Adenosine A2 receptor = Adenosine A2 receptor (Rattus norvegicus, UniProt P29276+P30543)
Description: Binding affinity for adenosine A2 receptor in rat striatal membranes using [3H]NECA as radioligand

Rattus norvegicus [5] = species: Rattus norvegicus; assay: Cardiovascular activity (as 20% decrease in blood pressure).; assay type: functional

SMILES | Ki (Adenosine receptor A1) [µM] | Ki (Adenosine A2 receptor) [µM] | LAD (Mus musculus [1]) [mg/kg] | LAD (Mus musculus [2]) [mg/kg] | ED20 (Rattus norvegicus [3]) [mg/kg] | ED20 (Rattus norvegicus [4]) [mg/kg] | ED20 (Rattus norvegicus [5]) [mg/kg]
C[C@H](Cc1ccccc1)Nc1ncnc2c1ncn2[C@@H]1O[C@H](CO)[C@@H](O)[C@H]1O [(R)-PIA] | – | – | 3 | 1 | 0.006 | – | –
C[C@H](Cc1ccccc1)Nc1ncnc2c1ncn2[C@@H]1O[C@@H](CO)[C@@H](O)[C@H]1O | – | – | >100 | >100 | – | > 10 | > 10
C[C@H](Cc1ccccc1)Nc1ncnc2c1ncn2C(CO)OC(O)CO (stereo not given in full) | > 10 | > 10 | >100 | >100 | – | > 10 | 0.9
C[C@H](Cc1ccccc1)Nc1[nH]cnc2ncnc1-2 | 9.6 | 39 | 100 | 100 | – | > 10 | 8
C[C@H](Cc1ccccc1)Nc1ncnc2c1ncn2C1OC[C@](O)(CO)[C@H]1O (stereo not given in full) | > 10 | > 50 | – | – | – | – | –
C[C@H](Cc1ccccc1)Nc1ncnc2c1ncn2COCCO | 68 | – | >30 | >30 | – | – | –
C[C@H](Cc1ccccc1)Nc1ncnc2c1ncn2C[C@H](O)CO | > 10 | > 10 | >100 | >100 | – | – | –
C[C@H](Cc1ccccc1)Nc1ncnc2c1ncn2C1OCC(O)C(O)C1O (stereo not given in full) | 5.7 | > 100 | – | – | – | – | –
C[C@H](Cc1ccccc1)Nc1ncnc2c1ncn2C[C@@H](O)CO | > 10 | > 10 | >100 | >100 | – | > 10 | > 10
C[C@H](Cc1ccccc1)Nc1ncnc2c1ncn2C1CCCC(O)C1O (stereo not given in full) | 15 | > 10 | >100 | >100 | – | > 3 | > 3
C[C@H](Cc1ccccc1)Nc1ncnc2c1ncn2CC(O)C(O)C(O)CO (stereo not given in full) | > 2.2 | > 100 | >100 | >100 | – | > 10 | 10

Further compounds by falling Ki (Adenosine receptor A1), results first:

Ki (Adenosine receptor A1) [µM] | Ki (Adenosine A2 receptor) [µM] | SMILES | LAD (Mus musculus [1]) [mg/kg] | LAD (Mus musculus [2]) [mg/kg] | ED20 (Rattus norvegicus [3]) [mg/kg] | ED20 (Rattus norvegicus [4]) [mg/kg] | ED20 (Rattus norvegicus [5]) [mg/kg]
1.9 | – | C[C@H](Cc1ccccc1)Nc1ncnc2c1ncn2[C@H]1C[C@H](O)[C@@H](CO)O1 | >30 | >30 | – | – | –
1.5 | 8.2 | C[C@H](Cc1ccccc1)Nc1ncnc2c1ncn2C1CCCO1 (stereo not given in full) | >100 | >100 | – | > 3 | > 3
1.2 | 38 | C[C@H](Cc1ccccc1)Nc1ncnc2c1ncn2C1CCCCO1 (stereo not given in full) | >100 | 100 | – | – | –
0.029 | 56 | CSC[C@H]1OC(n2cnc3c(N[C@H](C)Cc4ccccc4)ncnc32)[C@H](O)[C@@H]1O (stereo not given in full) | >100 | >100 | – | 3 | 0.023
0.029 | 6.9 | C[C@H](Cc1ccccc1)Nc1ncnc2c1ncn2[C@@H]1O[C@H](CO)C[C@H]1O | 100 | 100 | – | 0.4 | 0.8
0.025 | 3.3 | C[C@H](Cc1ccccc1)Nc1ncnc2c1ncn2C1O[C@H](C)[C@@H](O)[C@H]1O (stereo not given in full) | 100 | 30 | – | > 0.3 | 0.05
0.0016 | 1.9 | C[C@H](Cc1ccccc1)Nc1ncnc2c1ncn2C1O[C@H](CCl)[C@@H](O)[C@H]1O (stereo not given in full) | 100 | 10 | – | 0.08 | 0.1
